Measured values from patent US8012945B2, “Phage antibodies to radiation-inducible neoantigens” (Vanderbilt University, priority 2001, dated 2011).

Assays:
α2bβ3 receptor = target: T1, α2bβ3 receptor (Mus musculus, UniProt O54890+Q9QUM0); test: Recombinant phage binding in irradiated tumors after blocking antibody, plaque formation; format: in vivo; details: phage quantified by plaque formation
T1 construct: from tissue; host or cells: irradiated tumours (blood vessels and platelets) in living mice
T1 sequence (Q9QUM0 32-1033): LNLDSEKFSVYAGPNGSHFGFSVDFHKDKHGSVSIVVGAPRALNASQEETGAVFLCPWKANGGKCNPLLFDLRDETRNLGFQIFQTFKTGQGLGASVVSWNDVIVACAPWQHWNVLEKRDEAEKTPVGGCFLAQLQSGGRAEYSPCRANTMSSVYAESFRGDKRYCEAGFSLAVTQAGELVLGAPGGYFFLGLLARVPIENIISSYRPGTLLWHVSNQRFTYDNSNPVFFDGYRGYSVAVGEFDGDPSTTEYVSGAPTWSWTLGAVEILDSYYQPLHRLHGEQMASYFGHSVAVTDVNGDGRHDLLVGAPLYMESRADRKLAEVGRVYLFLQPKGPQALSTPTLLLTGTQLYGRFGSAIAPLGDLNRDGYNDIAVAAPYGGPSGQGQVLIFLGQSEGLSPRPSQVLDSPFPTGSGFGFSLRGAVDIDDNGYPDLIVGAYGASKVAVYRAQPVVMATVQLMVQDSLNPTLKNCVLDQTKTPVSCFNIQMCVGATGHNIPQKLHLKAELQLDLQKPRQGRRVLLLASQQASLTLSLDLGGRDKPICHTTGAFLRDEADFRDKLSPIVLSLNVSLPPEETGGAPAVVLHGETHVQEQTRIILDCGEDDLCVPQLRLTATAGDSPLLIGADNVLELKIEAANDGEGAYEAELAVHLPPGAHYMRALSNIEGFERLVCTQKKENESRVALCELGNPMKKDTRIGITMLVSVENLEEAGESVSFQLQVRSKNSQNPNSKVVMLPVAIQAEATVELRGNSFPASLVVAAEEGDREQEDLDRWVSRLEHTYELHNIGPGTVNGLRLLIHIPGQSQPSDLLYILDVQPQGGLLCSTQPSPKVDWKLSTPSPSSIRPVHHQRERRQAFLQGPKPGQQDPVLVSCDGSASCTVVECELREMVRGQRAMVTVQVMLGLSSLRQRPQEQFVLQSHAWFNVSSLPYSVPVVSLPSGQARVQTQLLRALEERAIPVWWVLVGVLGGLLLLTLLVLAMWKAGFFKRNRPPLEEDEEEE
T1 sequence (O54890 26-787): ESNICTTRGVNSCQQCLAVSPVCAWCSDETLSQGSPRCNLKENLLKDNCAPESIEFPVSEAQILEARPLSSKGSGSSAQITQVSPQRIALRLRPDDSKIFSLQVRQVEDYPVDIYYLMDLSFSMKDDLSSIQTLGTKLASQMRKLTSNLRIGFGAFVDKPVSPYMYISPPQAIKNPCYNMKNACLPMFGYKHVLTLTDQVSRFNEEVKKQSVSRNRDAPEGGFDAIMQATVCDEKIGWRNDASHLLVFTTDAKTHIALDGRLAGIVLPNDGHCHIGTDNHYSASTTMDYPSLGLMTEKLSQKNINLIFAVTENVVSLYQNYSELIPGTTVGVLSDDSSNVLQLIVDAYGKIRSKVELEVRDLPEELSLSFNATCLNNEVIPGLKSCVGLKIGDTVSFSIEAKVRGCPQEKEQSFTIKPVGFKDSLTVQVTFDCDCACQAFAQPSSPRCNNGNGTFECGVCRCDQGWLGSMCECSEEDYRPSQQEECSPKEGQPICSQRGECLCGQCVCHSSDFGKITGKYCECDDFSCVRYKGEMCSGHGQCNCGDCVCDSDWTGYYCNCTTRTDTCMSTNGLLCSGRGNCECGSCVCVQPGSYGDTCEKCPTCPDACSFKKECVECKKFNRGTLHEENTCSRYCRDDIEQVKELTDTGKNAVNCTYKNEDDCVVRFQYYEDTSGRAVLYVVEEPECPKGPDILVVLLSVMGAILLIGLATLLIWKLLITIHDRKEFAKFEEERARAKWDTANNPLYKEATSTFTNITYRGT
Experimental: The anti-[…]2b[…]3 monoclonal antibody was administered by tail vein to determine whether this receptor is required for recombinant phage binding in irradiated tumors. Phage encoding […] (SEQ ID NO: 5) on the capsid protein were injected immediately after blocking antibody or control antibody. Phage were recovered from the tumor and controls organs and quantified by plaque formation. Radiation induced a 4-fold increase in phage binding in tumor. […] Thus, the tumor binding activity of targeting peptide […] (SEQ ID NO: 5) is dependent on its interaction with the α2bβ3 receptor.

[1] = target: T2, GP-IIb/IIIa receptors on activated platelets (Homo sapiens, UniProt P05106+P08514); test: Clinical trial of x-ray-guided delivery, gamma camera/SPECT imaging of ^99mTc-labeled biapcitide; format: in vivo
T2 construct: endogenous in cells; host or cells: platelets in irradiated tumours of patients (in vivo imaging)
Experimental: Biapcitide (ACUTECT® available from Diatide, Inc., Londonderry, N.H., United States of America) is a synthetic peptide that binds to GP-IIb/IIIa receptors on activated platelets (Hawiger et al., 1989; Hawiger & Timmons, 1992). Biapcitide was labeled with ^99mTc in accordance with a protocol provided by Diatide Inc.
Reconstituted ^99mTc-labeled biapcitide was administered to patients at a dose of 100 mcg of biapcitide radiolabeled with 10 millicuries (mCi) of ^99mTc. […] Patients were then treated with 10 Gy or more. Patients underwent gamma camera imaging prior to irradiation and 24 hours following irradiation. Following planar image acquisition, those patients showing uptake in irradiated tumors underwent tomographic imaging using SPECT and repeat imaging at 24 hours. Patients showing no uptake on planer images during this 24-hour time frame had no further imaging.
Patients were treated with X-irradiation ranging from 4 to 18 MV photon using external beam linear accelerator at Vanderbilt University. Appropriate blocks, wedges and bolus to deliver adequate dose to the planned target volume was utilized. The site of irradiation, treatment intent and normal tissue considerations determined the radiation dosage and volume. When stereotactic radiosurgery was used, the dose was prescribed to the tumor periphery.
Image Analysis. Image acquisition consisted of both planar and single photon emission computed tomography (SPECT) studies. […] The spatial distribution of […] within the planar image was measured using region of interest (ROI) analysis. […] The rationale for using ROIs with different dimensions is to be able to quantify image counts while at the same time isolating any possible influence of ROI size on the results. […] Background counts was determined based on ROI analysis of a separate planar acquisition performed in the absence of a radioactive source.
Three-dimensional nuclear medicine SPECT examinations were performed using the same dual-head gamma camera system. […] SPECT tumor-to-background ratios were computed using quantitative ROI techniques identical to the planar studies.

B16F0 tumors = test: Biotinylated dodecapeptide binding in B16F0 hind limb tumors, Avidin-FITC staining; format: in vivo, mice
Description: Observations. The peptide sequence within fibrinogen that binds to the activated GPIIb/IIIa receptor is the dodecapeptide […] (SEQ ID NO: 16). To determine whether […] (SEQ ID NO: 16) binds in irradiated tumors, applicant utilized the peptide […] (SEQ ID NO: 16) linked to biotin by a serine-glycine linker ([…]-SGSGSK-biotin; SEQ ID NO: 30). This peptide was synthesized in the Vanderbilt University Peptide Core Lab and biotinylated at the carboxyl terminus. The resulting […]-SGSGSK-biotin (SEQ ID NO: 30) was administered by tail vein injection into tumor bearing mice. B16F0 tumors in the hind limb were treated with sham irradiation (control), 4 Gy irradiation followed by […]-SGSGSK-biotin (SEQ ID NO: 30) injection, or […]-SGSGSK-biotin (SEQ ID NO: 30) followed by tumor irradiation (4 Gy). Tumors were frozen at 4 hours and sectioned for fluorescence staining. Avidin-FITC was incubated with tumor sections and imaged by UV microscopy.

T2 sequence (P08514 32-887 limits assumed): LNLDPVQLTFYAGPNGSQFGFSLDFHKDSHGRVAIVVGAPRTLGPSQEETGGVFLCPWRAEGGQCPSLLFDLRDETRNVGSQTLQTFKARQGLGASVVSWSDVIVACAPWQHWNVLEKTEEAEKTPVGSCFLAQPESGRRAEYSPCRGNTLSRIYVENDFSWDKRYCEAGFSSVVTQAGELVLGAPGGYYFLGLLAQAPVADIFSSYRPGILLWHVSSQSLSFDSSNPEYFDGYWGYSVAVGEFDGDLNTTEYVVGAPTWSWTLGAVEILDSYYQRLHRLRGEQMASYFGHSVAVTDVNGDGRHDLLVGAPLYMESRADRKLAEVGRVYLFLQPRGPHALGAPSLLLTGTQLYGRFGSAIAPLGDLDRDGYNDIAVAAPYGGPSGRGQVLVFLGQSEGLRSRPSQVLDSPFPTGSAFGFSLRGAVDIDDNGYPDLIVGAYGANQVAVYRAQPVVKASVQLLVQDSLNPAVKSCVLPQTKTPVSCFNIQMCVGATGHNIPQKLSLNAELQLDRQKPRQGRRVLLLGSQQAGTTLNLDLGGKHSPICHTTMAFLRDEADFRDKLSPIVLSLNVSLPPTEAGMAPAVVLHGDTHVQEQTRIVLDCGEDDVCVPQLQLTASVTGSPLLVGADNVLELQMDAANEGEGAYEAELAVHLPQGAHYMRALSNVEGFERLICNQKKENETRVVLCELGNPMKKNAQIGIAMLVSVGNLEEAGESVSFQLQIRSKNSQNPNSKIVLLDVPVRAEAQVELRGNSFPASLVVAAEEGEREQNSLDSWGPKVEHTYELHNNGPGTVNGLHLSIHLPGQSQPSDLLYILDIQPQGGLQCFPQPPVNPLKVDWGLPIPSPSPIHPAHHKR
T2 sequence (P08514 891-1039 partner limits assumed): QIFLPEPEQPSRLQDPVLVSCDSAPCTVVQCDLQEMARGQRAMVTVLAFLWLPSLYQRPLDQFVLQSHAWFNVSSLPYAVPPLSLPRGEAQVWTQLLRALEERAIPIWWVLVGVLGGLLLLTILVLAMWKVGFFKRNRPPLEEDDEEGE
T2 sequence (P05106 27-788): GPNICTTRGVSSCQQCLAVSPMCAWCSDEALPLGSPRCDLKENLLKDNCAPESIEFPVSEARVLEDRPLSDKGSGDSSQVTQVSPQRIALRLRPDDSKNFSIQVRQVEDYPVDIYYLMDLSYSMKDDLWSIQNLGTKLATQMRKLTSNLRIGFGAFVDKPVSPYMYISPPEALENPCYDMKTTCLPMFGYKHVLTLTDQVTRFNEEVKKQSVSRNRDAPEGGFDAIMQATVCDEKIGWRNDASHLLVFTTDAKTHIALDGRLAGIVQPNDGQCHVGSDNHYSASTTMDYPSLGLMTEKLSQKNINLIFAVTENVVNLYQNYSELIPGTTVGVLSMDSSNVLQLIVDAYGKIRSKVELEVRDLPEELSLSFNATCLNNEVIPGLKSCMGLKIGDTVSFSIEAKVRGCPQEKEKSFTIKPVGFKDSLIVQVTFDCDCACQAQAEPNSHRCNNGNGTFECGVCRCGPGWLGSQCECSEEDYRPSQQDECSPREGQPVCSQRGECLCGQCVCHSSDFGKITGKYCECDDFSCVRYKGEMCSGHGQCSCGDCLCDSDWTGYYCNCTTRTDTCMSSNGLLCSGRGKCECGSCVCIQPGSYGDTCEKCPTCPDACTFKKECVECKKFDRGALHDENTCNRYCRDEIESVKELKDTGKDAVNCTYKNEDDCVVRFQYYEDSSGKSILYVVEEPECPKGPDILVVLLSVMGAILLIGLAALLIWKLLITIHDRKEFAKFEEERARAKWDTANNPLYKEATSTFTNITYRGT

With “SLRGDGSSV (phage-displayed; Artificial peptide ligand number 5)” the “radiation-induced increase in phage binding in tumor” value (α2bβ3 receptor) was 4 fold.

In the case of Biapcitide [^99mTc-labeled biapticide], the tumor binding ([1]; administered immediately prior to radiation) is reported as 4 of 4, the “localization to the tumor” value ([1]; administered within one hour following radiation) is reported as “failed to show localization” and the “binding in untreated tumor” value ([1]; second neoplasms not treated with radiation, two patients) is reported as “not observed”.

For “HHLGGAKQAGDV (Artificial peptide ligand number 16) [dodecapeptide, segment of the γ subunit of fibrinogen]”, the “efficiency of schedule of administration” value (B16F0 tumors; administration prior to irradiation compared to radiation before administration) was “administration prior to irradiation is a more efficient schedule”.

With HHLGGAKQAGDV-SGSGSK-biotin the “Avidin-FITC staining of tumor sections, irradiated tumors” value (B16F0 tumors; 4 Gy, tumors frozen at 4 hours) was “Avidin-FITC stained blood vessels were observed” and the “Avidin-FITC staining of tumor sections, untreated control” value (B16F0 tumors; sham irradiation) was “not in untreated control”.
